# Values quoted from earlier work, collected in US20170266293A1, “METHODS OF TREATING CANCERS WITH THERAPEUTIC NANOPARTICLES” (PFIZER INC., priority 2011, published 2017).
# System: cholangiocarcinoma
# Conditions: previous studies, Pazdur, Am. J. Clin. Oncol. 1999
compound,measurement,value
CC(=O)O[C@@]12CO[C@@H]1C[C@H](O)[C@@]1(C)C(=O)[C@H](O)C3=C(C)[C@@H](OC(=O)[C@H](O)[C@@H](NC(=O)OC(C)(C)C)c4ccccc4)C[C@@](O)([C@@H](OC(=O)c4ccccc4)[C@H]21)C3(C)C [docetaxel],Efficacy for the treatment of cholangiocarcinoma,ineffective
